Activity calls are given as the source filed them. The rule behind the calls is not given here.
Experiments:
[1] = tested on: HL-60; experiment: Cytotoxicity against human HL60 cells after 72 hrs by MTT assay; format: functional, cell-based; details: for IC50: HL-60, 72 h
[2] = tested on: U-937; experiment: Cytotoxicity against human U937 cells after 72 hrs by MTT assay; format: functional, cell-based; details: for IC50: U-937, 72 h
[3] = tested on: MOLT-3; experiment: Cytotoxicity against human MOLT3 cells after 72 hrs by MTT assay; format: functional, cell-based; details: for IC50: MOLT-3, 72 h
[4] = tested on: MCF7; experiment: Cytotoxicity against human MCF7 cells after 72 hrs by MTT assay; format: functional, cell-based; details: for IC50: MCF7, 72 h
[5] = tested on: HL-60; experiment: Cytotoxicity against human HL60 cells assessed as morphological changes at 10 uM after 24 hrs by inverted phase-contrast microscopic analysis; format: functional, cell-based
[6] = tested on: U-937; experiment: Cytotoxicity against human U937 cells assessed as morphological changes at 10 uM after 24 hrs by inverted phase-contrast microscopic analysis; format: functional, cell-based
[7] = tested on: MOLT-3; experiment: Cytotoxicity against human MOLT3 cells assessed as morphological changes at 10 uM after 24 hrs by inverted phase-contrast microscopic analysis; format: functional, cell-based
[8] = tested on: MCF7; experiment: Cytotoxicity against human MCF7 cells assessed as morphological changes at 10 uM after 24 hrs by inverted phase-contrast microscopic analysis; format: functional, cell-based
[9] = tested on: HL-60; experiment: Cytotoxicity against human HL60 cells assessed as reduction in cell number at 10 uM after 24 hrs by inverted phase-contrast microscopic analysis; format: functional, cell-based
[10] = tested on: U-937; experiment: Cytotoxicity against human U937 cells assessed as reduction in cell number at 10 uM after 24 hrs by inverted phase-contrast microscopic analysis; format: functional, cell-based
[11] = tested on: MOLT-3; experiment: Cytotoxicity against human MOLT3 cells assessed as reduction in cell number at 10 uM after 24 hrs by inverted phase-contrast microscopic analysis; format: functional, cell-based
[12] = tested on: HL-60; experiment: Induction of apoptosis in human HL60 cells assessed as increase in chromatin condensation at 10 uM after 24 hrs by Hoechst staining-based flow cytometric analysis; format: functional, cell-based
[13] = tested on: U-937; experiment: Induction of apoptosis in human U937 cells assessed as increase in chromatin condensation at 10 uM after 24 hrs by Hoechst staining-based flow cytometric analysis; format: functional, cell-based
[14] = tested on: HL-60; experiment: Induction of apoptosis in human HL60 cells assessed as […] hydrolysis of chromatin at 10 uM after 24 hrs by agarose gel electrophoretic analysis; format: functional, cell-based
[15] = tested on: MOLT-3; experiment: Induction of apoptosis in human MOLT3 cells assessed as increase in chromatin condensation at 10 uM after 24 hrs by Hoechst staining-based flow cytometric analysis; format: functional, cell-based
[16] = tested on: U-937; experiment: Induction of apoptosis in human U937 cells assessed as […] hydrolysis of chromatin at 10 uM after 24 hrs by agarose gel electrophoretic analysis; format: functional, cell-based
[17] = tested on: MOLT-3; experiment: Induction of apoptosis in human MOLT3 cells assessed as […] hydrolysis of chromatin at 10 uM after 24 hrs by agarose gel electrophoretic analysis; format: functional, cell-based
[18] = tested on: U-937; experiment: Induction of apoptosis in human U937 cells assessed as increase in apoptotic cells at 10 uM after 24 hrs by propidium iodide staining-based flow cytometric analysis (reference value: 2.3 /- 0.4%); format: functional
[19] = tested on: MOLT-3; experiment: Induction of apoptosis in human MOLT3 cells assessed as increase in apoptotic cells at 10 uM after 24 hrs by propidium iodide staining-based flow cytometric analysis (reference value: 3.1 /- 0.7%); format: functional

Compound | Activity [1] | IC50 [1] [µM] | Activity [2] | IC50 [2] [µM] | Activity [3] | IC50 [3] [µM] | Activity [4] | IC50 [4] [µM] | Activity [5] | Activity [6] | Activity [7] | Activity [8] | Activity [9] | Activity [10] | Activity [11] | Activity [12] | Activity [13] | Activity [14] | Activity [15] | Activity [16] | other results
CC(C)[C@@H]1CC[C@@H](C)C[C@H]1O[C@@H]1O[C@H](CO[C@@H]2O[C@H](COC(=O)c3ccc(Br)cc3)[C@@H](OC(=O)c3ccc(Br)cc3)[C@H](O)[C@H]2O)[C@@H](O)[C@H](O)[C@H]1O | Dose-dependent effect | 7 | Dose-dependent effect | 9.2 | Dose-dependent effect | 11.4 | Dose-dependent effect | 12.9 | Active | Active | Active | Active | Active | Active | Active | Active | Active | Active | Active | Active | Activity [17]: Active
CC(C)[C@H]1CC[C@H](C)C[C@@H]1O[C@H]1O[C@H](CO[C@@H]2O[C@H](COC(=O)c3ccc(Br)cc3)[C@@H](OC(=O)c3ccc(Br)cc3)[C@H](O)[C@H]2O)[C@@H](O)[C@H](O)[C@H]1O | Dose-dependent effect | 7.3 | Dose-dependent effect | 6.9 | Dose-dependent effect | 5.8 | Dose-dependent effect | 6.1 | Active | Active | Active | Active | Active | Active | Active | Active | Active | Active | Active | Active | Activity [18]: 46%; Activity [19]: 69.5%; Activity [17]: Active
